Test system: 186277-243-T-J2-PDC complex spheroid viability
Assay: Anticancer human tumor 186277-243-T-J2-PDC patient-derived colon adenocarcinoma cell line growth inhibition [GQUAD]
Conditions: for IC50: curve of first compound; for viability, T/C: stronger effect = lower value
Outline: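 Tumor cells were grown as complex spheroids with HUVEC endothelial cells and mesenchymal stem cells as stroma. G-quadruplex stabilizers were combined with targeted agents over half-log dilutions from near the clinical Cmax, or from 10 microM.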

[1] = second compound 0.0316 µM, first compound 0.0316 µM
[2] = second compound 0.0316 µM, first compound 0.1 µM
[3] = second compound 0.0316 µM, first compound 0.316 µM
[4] = second compound 0.0316 µM, first compound 1 µM
[5] = second compound 0.0316 µM, first compound 3.16 µM
[6] = second compound 0.0316 µM, first compound 10 µM
[7] = second compound 0.1 µM, first compound 0.0316 µM
[8] = second compound 0.1 µM, first compound 0.1 µM
[9] = second compound 0.1 µM, first compound 0.316 µM
[10] = second compound 0.1 µM, first compound 1 µM
[11] = second compound 0.1 µM, first compound 3.16 µM
[12] = second compound 0.1 µM, first compound 10 µM
[13] = second compound 0.316 µM, first compound 0.0316 µM
[14] = second compound 0.316 µM, first compound 0.1 µM
[15] = second compound 0.316 µM, first compound 0.316 µM
[16] = second compound 0.316 µM, first compound 1 µM
[17] = second compound 0.316 µM, first compound 3.16 µM
[18] = second compound 0.316 µM, first compound 10 µM
[19] = second compound 1 µM, first compound 0.0316 µM
[20] = second compound 1 µM, first compound 0.1 µM
[21] = second compound 1 µM, first compound 0.316 µM
[22] = second compound 1 µM, first compound 1 µM
[23] = second compound 1 µM, first compound 3.16 µM
[24] = second compound 1 µM, first compound 10 µM
[25] = second compound 3.16 µM, first compound 0.0316 µM
[26] = second compound 3.16 µM, first compound 0.1 µM
[27] = second compound 3.16 µM, first compound 0.316 µM
[28] = second compound 3.16 µM, first compound 1 µM
[29] = second compound 3.16 µM, first compound 3.16 µM
[30] = second compound 3.16 µM, first compound 10 µM
[31] = second compound 10 µM, first compound 0.0316 µM
[32] = second compound 10 µM, first compound 0.1 µM
[33] = second compound 10 µM, first compound 0.316 µM
[34] = second compound 10 µM, first compound 1 µM
[35] = second compound 10 µM, first compound 3.16 µM
[36] = second compound 10 µM, first compound 10 µM
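Also: spheroids exposed to drugs for 7 days.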
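For viability, T/C in this document: 100% = DMSO vehicle control viability.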

For `Nc1ccn(C2OC(CO)C(O)C2(F)F)c(=O)n1` (stereo not drawn) + CN(C)c1ccc(Nc2c3ccc(NC(=O)CCN4CCCC4)cc3nc3cc(NC(=O)CCN4CCCC4)ccc23)cc1, the IC50 (second compound 0.0316 µM) was under 31.6 nM, the IC50 (second compound 0.1 µM) was under 31.6 nM and the IC50 (second compound 0.316 µM) was under 31.6 nM. For the same compound, the IC50 (second compound 1 µM) was under 31.6 nM, the IC50 (second compound 3.16 µM) was under 31.6 nM and the IC50 (second compound 10 µM) was under 31.6 nM. It also gave a viability, T/C [1] of 10.1%, a viability, T/C [2] of 9.64% and a viability, T/C [3] of 9.07%. It also gave a viability, T/C [4] of 7.19%, a viability, T/C [5] of 8.19% and a viability, T/C [6] of 8.56%. For the same compound, the viability, T/C [7] was 10.4%, the viability, T/C [8] was 7.92% and the viability, T/C [9] was 8%. It also gave a viability, T/C [10] of 7.8%, a viability, T/C [11] of 8.64% and a viability, T/C [12] of 8.31%. The viability, T/C [13] was 10.9%, the viability, T/C [14] was 7.8% and the viability, T/C [15] was 7.03%. For the same compound, the viability, T/C [16] was 7%, the viability, T/C [17] was 8.54% and the viability, T/C [18] was 8.47%. For the same compound, the viability, T/C [19] was 8.71%, the viability, T/C [20] was 7.38% and the viability, T/C [21] was 6.7%. It also gave a viability, T/C [22] of 6.93%, a viability, T/C [23] of 8.1% and a viability, T/C [24] of 7.47%. The viability, T/C [25] was 8.12%, the viability, T/C [26] was 7.76% and the viability, T/C [27] was 7.81%. For the same compound, the viability, T/C [28] was 7.28%, the viability, T/C [29] was 8% and the viability, T/C [30] was 7.61%. The viability, T/C [31] was 8.33%, the viability, T/C [32] was 7.59% and the viability, T/C [33] was 7.12%. The viability, T/C [34] was 6.96%, the viability, T/C [35] was 7.9% and the viability, T/C [36] was 7.91%.
`O=c1[nH]cc(F)c(=O)[nH]1` + Cc1[nH]c2ccc(F)cc2c1-c1nc2c3cccnc3c3ncccc3c2[nH]1 was tested, and the IC50 (second compound 0.0316 µM) was over 10000 nM, the IC50 (second compound 0.1 µM) was over 10000 nM and the IC50 (second compound 0.316 µM) was 8530 nM. The IC50 (second compound 1 µM) was over 10000 nM, the IC50 (second compound 3.16 µM) was 7710 nM and the IC50 (second compound 10 µM) was 6670 nM. The viability, T/C [1] was 107%, the viability, T/C [2] was 99.2% and the viability, T/C [3] was 110%. The viability, T/C [4] was 106%, the viability, T/C [5] was 67.7% and the viability, T/C [6] was 51.4%. It also gave a viability, T/C [7] of 94.7%, a viability, T/C [8] of 86.5% and a viability, T/C [9] of 110%. The viability, T/C [10] was 109%, the viability, T/C [11] was 80.9% and the viability, T/C [12] was 51.7%. For the same compound, the viability, T/C [13] was 84.9%, the viability, T/C [14] was 101% and the viability, T/C [15] was 106%. It also gave a viability, T/C [16] of 124%, a viability, T/C [17] of 80.7% and a viability, T/C [18] of 45.1%. The viability, T/C [19] was 98.2%, the viability, T/C [20] was 93.7% and the viability, T/C [21] was 93.5%. The viability, T/C [22] was 87.7%, the viability, T/C [23] was 80.7% and the viability, T/C [24] was 51.4%. For the same compound, the viability, T/C [25] was 97.9%, the viability, T/C [26] was 94% and the viability, T/C [27] was 110%. The viability, T/C [28] was 99.4%, the viability, T/C [29] was 68.6% and the viability, T/C [30] was 44.6%. For the same compound, the viability, T/C [31] was 106%, the viability, T/C [32] was 108% and the viability, T/C [33] was 110%. It also gave a viability, T/C [34] of 116%, a viability, T/C [35] of 69.3% and a viability, T/C [36] of 39.5%.
Work on `O=C(NO)c1cnc(N2CCN(S(=O)(=O)c3ccc4ccccc4c3)CC2)nc1` + Cc1[nH]c2ccc(F)cc2c1-c1nc2c3cccnc3c3ncccc3c2[nH]1 yielded an IC50 (second compound 0.0316 µM) of 183 nM, an IC50 (second compound 0.1 µM) of 187 nM and an IC50 (second compound 0.316 µM) of 203 nM. It also gave an IC50 (second compound 1 µM) of 190 nM, an IC50 (second compound 3.16 µM) of 203 nM and an IC50 (second compound 10 µM) of 218 nM. The viability, T/C [1] was 100%, the viability, T/C [2] was 94% and the viability, T/C [3] was 9.84%. The viability, T/C [4] was 0.27%, the viability, T/C [5] was 0.17% and the viability, T/C [6] was 0.17%. It also gave a viability, T/C [7] of 117%, a viability, T/C [8] of 95% and a viability, T/C [9] of 12.1%. For the same compound, the viability, T/C [10] was 0.25%, the viability, T/C [11] was 0.14% and the viability, T/C [12] was 0.12%. The viability, T/C [13] was 103%, the viability, T/C [14] was 115% and the viability, T/C [15] was 13.1%. It also gave a viability, T/C [16] of 0.3%, a viability, T/C [17] of 0.12% and a viability, T/C [18] of 0.11%. For the same compound, the viability, T/C [19] was 91.5%, the viability, T/C [20] was 95.1% and the viability, T/C [21] was 15.3%. The viability, T/C [22] was 0.34%, the viability, T/C [23] was 0.11% and the viability, T/C [24] was 0.13%. It also gave a viability, T/C [25] of 100%, a viability, T/C [26] of 98.2% and a viability, T/C [27] of 19.7%. The viability, T/C [28] was 0.38%, the viability, T/C [29] was 0.14% and the viability, T/C [30] was 0.16%. The viability, T/C [31] was 100%, the viability, T/C [32] was 98.5% and the viability, T/C [33] was 26.7%. For the same compound, the viability, T/C [34] was 0.52%, the viability, T/C [35] was 0.2% and the viability, T/C [36] was 0.22%.
Compound `Cc1cccc(N(C)C(=O)C2C(O)CCN2c2nc(C)cc(C(F)(F)F)c2C#N)c1` (stereo not drawn) + Cc1cnc(CNC(=O)c2c(=O)c3ccc(N4CCCN(C)CC4)nc3n3c2sc2ccccc23)cn1 has an IC50 (second compound 0.0316 µM) of over 10000 nM, an IC50 (second compound 0.1 µM) of over 10000 nM and an IC50 (second compound 0.316 µM) of over 10000 nM. It also gave an IC50 (second compound 1 µM) of over 10000 nM, an IC50 (second compound 3.16 µM) of under 31.6 nM and an IC50 (second compound 10 µM) of under 31.6 nM. The viability, T/C [1] was 107%, the viability, T/C [2] was 110% and the viability, T/C [3] was 109%. It also gave a viability, T/C [4] of 100%, a viability, T/C [5] of 102% and a viability, T/C [6] of 117%. The viability, T/C [7] was 92.8%, the viability, T/C [8] was 93.3% and the viability, T/C [9] was 97.4%. For the same compound, the viability, T/C [10] was 105%, the viability, T/C [11] was 94.8% and the viability, T/C [12] was 78.8%. The viability, T/C [13] was 73%, the viability, T/C [14] was 84.1% and the viability, T/C [15] was 75.1%. The viability, T/C [16] was 71.7%, the viability, T/C [17] was 76.6% and the viability, T/C [18] was 88.5%. It also gave a viability, T/C [19] of 51.6%, a viability, T/C [20] of 70.4% and a viability, T/C [21] of 68.6%. For the same compound, the viability, T/C [22] was 59.5%, the viability, T/C [23] was 64.9% and the viability, T/C [24] was 65%. For the same compound, the viability, T/C [25] was 42.2%, the viability, T/C [26] was 52.2% and the viability, T/C [27] was 47.9%. It also gave a viability, T/C [28] of 47.1%, a viability, T/C [29] of 52.9% and a viability, T/C [30] of 51.9%. It also gave a viability, T/C [31] of 45.3%, a viability, T/C [32] of 45.9% and a viability, T/C [33] of 38%. For the same compound, the viability, T/C [34] was 41.6%, the viability, T/C [35] was 53.1% and the viability, T/C [36] was 51.4%.
